Results published in US20230399317A1, “COMPOUNDS AND METHODS FOR THE TREATMENT OF OCULAR DISORDERS” (Azura Ophthalmics Ltd., priority 2020, published 2023).

Assay: Rabbit Cornea Homogenate stability (esterase) assay, Method 2
Type: in vitro ADME
Details: for Esterase % Lifitegrast formation at 45 min: 37° C., Method 2 (DPBS pH 7.4); for API Formation rate (%/min): Method 2
Protocol: Determining Rabbit Cornea Homogenate stability of the test compounds was performed using HPLC-MS or UPLC-MS. The assay was performed at two concentrations of Rabbit Cornea Homogenate (0.15 mg/mL and 0.45 mg/mL total protein) so that any hydrolysis observed can be assigned as esterase dependent or not.
Three to five rabbit corneas (e.g. New Zealand Whites (NZW) or Dutch Belted (DB)) of approx. 50 mg each were sliced and scraped with a scalpel and tweezers until reduced to small (1-3 mm), thin pieces. These were transferred into a glass vial containing approximately 2 mL of cold DPBS pH 7.4 buffer.
Sample was cooled intermittently on ice and shear homogenized for 3 minutes, then centrifuged for 3 min at 13,000 g. The supernatant was pipetted off into a vial, and total protein concentration determined at 280 nm. Sample was stored at −78° C.
10 mM Compound DMSO stocks were diluted to 10 μM in a glass vial: 10 μL of 10 mM Compound stock was added to 9,990 μL DPBS, pH 7.4 buffer. Esterase homogenate was diluted to 300 ng/μL and 900 ng/μL in DPBS. […]
A heater shaker was set to 37° C. Into a suitable 96 well plate (Run Plate), 80 μL of 300 or 900 ng/μL esterase homogenate was pipetted into two rows as compounds were analyzed in duplicate (0 min, 2 min, 5 min, 10 min, 20 min and 45 min). The plate was sealed and then warmed at 37° C. for 5 min.
Two 96 shallow-well plates were placed on ice (Kill Plates). To these, 180 μL of 60:40 MeCN-H2O+0.1% acetic acid were added to required rows. The plates were sealed to minimise evaporation.
To both rows of the Run Plate, 80 μL of 10 μM compound solution was added. At the appropriate time point, 20 μL of the assay mixture was added to the matching kill plate well containing 180 μL of 60:40 cold MeCN-H2O+0.1% acetic acid. For lipoic acid analysis, samples were analysed as soon as practicable by LCMS (Waters Xevo TQ-S). For parent conjugate and parent analysis the samples were diluted further 1 in 10: 20 μL supernatant was added to 180 μL of 50:50 MeCN—H2O.
Parent conjugate, parent and keratolytic concentrations were determined against appropriate standard response curves and the half-life (T½) of the parent conjugate was calculated using the peak area or the measured concentration of the parent conjugate at each time point in the linear region of the log-linear plot.

[1] = Cornea Homogenate Conc 0.15 mg/mL
[2] = Cornea Homogenate Conc 0.45 mg/mL

With `CCOC(=O)CCC(=O)OC(C)OC(=O)[C@H](Cc1cccc(S(C)(=O)=O)c1)NC(=O)c1c(Cl)cc2c(c1Cl)CCN(C(=O)c1ccc3ccoc3c1)C2` (some centres unmarked) [Compound 37] the “Esterase % Lifitegrast formation at 45 min” value [1] was “C (percent API formation 51% to 75%)”, the “API Formation rate (%/min)” value [1] was “c (API formation rate 1.0-1.5%/min)” and the “Esterase % Lifitegrast formation at 45 min” value [2] was “D (percent API formation >75%)”. For the same compound, the “API Formation rate (%/min)” value [2] was “c (API formation rate 1.0-1.5%/min)”.
With `CC(=O)NC(CSSCC(NC(C)=O)C(=O)OC(C)OC(=O)[C@H](Cc1cccc(S(C)(=O)=O)c1)NC(=O)c1c(Cl)cc2c(c1Cl)CCN(C(=O)c1ccc3ccoc3c1)C2)C(=O)O` (some centres unmarked) [Compound 25] the “Esterase % Lifitegrast formation at 45 min” value [1] was “A (percent active pharmaceutical ingredient (API) formation <25%)”, the “API Formation rate (%/min)” value [1] was “a (API formation rate <0.5%/min)” and the “Esterase % Lifitegrast formation at 45 min” value [2] was “A (percent active pharmaceutical ingredient (API) formation <25%)”. For the same compound, the “API Formation rate (%/min)” value [2] was “a (API formation rate <0.5%/min)”.
For `CS(=O)(=O)c1cccc(C[C@H](NC(=O)c2c(Cl)cc3c(c2Cl)CCN(C(=O)c2ccc4ccoc4c2)C3)C(=O)OCCO)c1` [Compound 32], the “Esterase % Lifitegrast formation at 45 min” value [1] was “A (percent active pharmaceutical ingredient (API) formation <25%)”, the “API Formation rate (%/min)” value [1] was “a (API formation rate <0.5%/min)” and the “Esterase % Lifitegrast formation at 45 min” value [2] was “B (percent API formation 25% to 50%)”. For the same compound, the “API Formation rate (%/min)” value [2] was “b (API formation rate 0.5-1.0%/min)”.
With `CS(=O)(=O)c1cccc(C[C@H](NC(=O)c2c(Cl)cc3c(c2Cl)CCN(C(=O)c2ccc4ccoc4c2)C3)C(=O)OCOC(=O)CCCC[C@@H]2CCSS2)c1` [Compound 36] the “Esterase % Lifitegrast formation at 45 min” value [1] was “A (percent active pharmaceutical ingredient (API) formation <25%)”, the “API Formation rate (%/min)” value [1] was “a (API formation rate <0.5%/min)” and the “Esterase % Lifitegrast formation at 45 min” value [2] was “B (percent API formation 25% to 50%)”. The “API Formation rate (%/min)” value [2] was “b (API formation rate 0.5-1.0%/min)”.
In the case of `CC(OC(=O)OCCO)OC(=O)[C@H](Cc1cccc(S(C)(=O)=O)c1)NC(=O)c1c(Cl)cc2c(c1Cl)CCN(C(=O)c1ccc3ccoc3c1)C2` (some centres unmarked) [Compound 42], the “Esterase % Lifitegrast formation at 45 min” value [1] is reported as “C (percent API formation 51% to 75%)”, the “API Formation rate (%/min)” value [1] is reported as “d (API formation rate >1.5%/min)” and the “Esterase % Lifitegrast formation at 45 min” value [2] is reported as “C (percent API formation 51% to 75%)”. For the same compound, the “API Formation rate (%/min)” value [2] was “d (API formation rate >1.5%/min)”.
In the case of `CC(=O)N1C(C(=O)OC(C)OC(=O)[C@H](Cc2cccc(S(C)(=O)=O)c2)NC(=O)c2c(Cl)cc3c(c2Cl)CCN(C(=O)c2ccc4ccoc4c2)C3)CSC1(C)C` (some centres unmarked) [Compound 26], the “Esterase % Lifitegrast formation at 45 min” value [1] is reported as “A (percent active pharmaceutical ingredient (API) formation <25%)”, the “API Formation rate (%/min)” value [1] is reported as “a (API formation rate <0.5%/min)” and the “Esterase % Lifitegrast formation at 45 min” value [2] is reported as “A (percent active pharmaceutical ingredient (API) formation <25%)”. The “API Formation rate (%/min)” value [2] was “a (API formation rate <0.5%/min)”.
For `CC(=O)N[C@@H](CSSC[C@H](NC(C)=O)C(=O)OC(C)OC(=O)[C@H](Cc1cccc(S(C)(=O)=O)c1)NC(=O)c1c(Cl)cc2c(c1Cl)CCN(C(=O)c1ccc3ccoc3c1)C2)C(=O)OC(C)OC(=O)[C@H](Cc1cccc(S(C)(=O)=O)c1)NC(=O)c1c(Cl)cc2c(c1Cl)CCN(C(=O)c1ccc3ccoc3c1)C2` (some centres unmarked) [Compound 49], the “Esterase % Lifitegrast formation at 45 min” value [1] was “A (percent active pharmaceutical ingredient (API) formation <25%)”, the “API Formation rate (%/min)” value [1] was “a (API formation rate <0.5%/min)” and the “Esterase % Lifitegrast formation at 45 min” value [2] was “A (percent active pharmaceutical ingredient (API) formation <25%)”. For the same compound, the “API Formation rate (%/min)” value [2] was “a (API formation rate <0.5%/min)”.
With `CS(=O)(=O)c1cccc(C[C@H](NC(=O)c2c(Cl)cc3c(c2Cl)CCN(C(=O)c2ccc4ccoc4c2)C3)C(=O)OCCCO)c1` [Compound 33] the “Esterase % Lifitegrast formation at 45 min” value [1] was “B (percent API formation 25% to 50%)”, the “API Formation rate (%/min)” value [1] was “b (API formation rate 0.5-1.0%/min)” and the “Esterase % Lifitegrast formation at 45 min” value [2] was “B (percent API formation 25% to 50%)”. For the same compound, the “API Formation rate (%/min)” value [2] was “c (API formation rate 1.0-1.5%/min)”.
In the case of `CC(=O)N[C@@H](CSSCC[C@@H](CCCCC(=O)OC(C)OC(=O)[C@H](Cc1cccc(S(C)(=O)=O)c1)NC(=O)c1c(Cl)cc2c(c1Cl)CCN(C(=O)c1ccc3ccoc3c1)C2)SSC[C@H](NC(C)=O)C(=O)O)C(=O)O` (some centres unmarked) [Compound 44], the “Esterase % Lifitegrast formation at 45 min” value [1] is reported as “A (percent active pharmaceutical ingredient (API) formation <25%)”, the “API Formation rate (%/min)” value [1] is reported as “a (API formation rate <0.5%/min)” and the “Esterase % Lifitegrast formation at 45 min” value [2] is reported as “A (percent active pharmaceutical ingredient (API) formation <25%)”. The “API Formation rate (%/min)” value [2] was “a (API formation rate <0.5%/min)”.
For `CS(=O)(=O)c1cccc(C[C@H](NC(=O)c2c(Cl)cc3c(c2Cl)CCN(C(=O)c2ccc4ccoc4c2)C3)C(=O)OCCOC(=O)CCCC[C@@H]2CCSS2)c1` [Compound 34], the “Esterase % Lifitegrast formation at 45 min” value [1] was “A (percent active pharmaceutical ingredient (API) formation <25%)”, the “API Formation rate (%/min)” value [1] was “a (API formation rate <0.5%/min)” and the “Esterase % Lifitegrast formation at 45 min” value [2] was “A (percent active pharmaceutical ingredient (API) formation <25%)”. For the same compound, the “API Formation rate (%/min)” value [2] was “a (API formation rate <0.5%/min)”.
In the case of `CC(OC(=O)OCCCO)OC(=O)[C@H](Cc1cccc(S(C)(=O)=O)c1)NC(=O)c1c(Cl)cc2c(c1Cl)CCN(C(=O)c1ccc3ccoc3c1)C2` (some centres unmarked) [Compound 43], the “Esterase % Lifitegrast formation at 45 min” value [1] is reported as “B (percent API formation 25% to 50%)”, the “API Formation rate (%/min)” value [1] is reported as “b (API formation rate 0.5-1.0%/min)” and the “Esterase % Lifitegrast formation at 45 min” value [2] is reported as “C (percent API formation 51% to 75%)”. The “API Formation rate (%/min)” value [2] was “c (API formation rate 1.0-1.5%/min)”.
In the case of `CS(=O)(=O)c1cccc(C[C@H](NC(=O)c2c(Cl)cc3c(c2Cl)CCN(C(=O)c2ccc4ccoc4c2)C3)C(=O)OCCCOC(=O)CCCC[C@@H]2CCSS2)c1` [Compound 35], the “Esterase % Lifitegrast formation at 45 min” value [1] is reported as “A (percent active pharmaceutical ingredient (API) formation <25%)”, the “API Formation rate (%/min)” value [1] is reported as “a (API formation rate <0.5%/min)” and the “Esterase % Lifitegrast formation at 45 min” value [2] is reported as “A (percent active pharmaceutical ingredient (API) formation <25%)”. For the same compound, the “API Formation rate (%/min)” value [2] was “a (API formation rate <0.5%/min)”.
With `CC(=O)N[C@@H](CS)C(=O)OCCOCCOCCOCCOC(=O)OC(C)OC(=O)[C@H](Cc1cccc(S(C)(=O)=O)c1)NC(=O)c1c(Cl)cc2c(c1Cl)CCN(C(=O)c1ccc3ccoc3c1)C2` (some centres unmarked) [Compound 29] the “Esterase % Lifitegrast formation at 45 min” value [1] was “A (percent active pharmaceutical ingredient (API) formation <25%)”, the “API Formation rate (%/min)” value [1] was “a (API formation rate <0.5%/min)” and the “Esterase % Lifitegrast formation at 45 min” value [2] was “A (percent active pharmaceutical ingredient (API) formation <25%)”. The “API Formation rate (%/min)” value [2] was “a (API formation rate <0.5%/min)”.
With `CC(OC(=O)OCCCOC(=O)CCCC[C@@H]1CCSS1)OC(=O)[C@H](Cc1cccc(S(C)(=O)=O)c1)NC(=O)c1c(Cl)cc2c(c1Cl)CCN(C(=O)c1ccc3ccoc3c1)C2` (some centres unmarked) [Compound 47] the “Esterase % Lifitegrast formation at 45 min” value [1] was “A (percent active pharmaceutical ingredient (API) formation <25%)”, the “API Formation rate (%/min)” value [1] was “a (API formation rate <0.5%/min)” and the “Esterase % Lifitegrast formation at 45 min” value [2] was “A (percent active pharmaceutical ingredient (API) formation <25%)”. For the same compound, the “API Formation rate (%/min)” value [2] was “a (API formation rate <0.5%/min)”.
In the case of `CC(OC(=O)OCCOC(=O)CCCC[C@H]1CCSS1)OC(=O)[C@H](Cc1cccc(S(C)(=O)=O)c1)NC(=O)c1c(Cl)cc2c(c1Cl)CCN(C(=O)c1ccc3ccoc3c1)C2` (some centres unmarked) [Compound 46], the “Esterase % Lifitegrast formation at 45 min” value [1] is reported as “A (percent active pharmaceutical ingredient (API) formation <25%)”, the “API Formation rate (%/min)” value [1] is reported as “a (API formation rate <0.5%/min)” and the “Esterase % Lifitegrast formation at 45 min” value [2] is reported as “A (percent active pharmaceutical ingredient (API) formation <25%)”. For the same compound, the “API Formation rate (%/min)” value [2] was “a (API formation rate <0.5%/min)”.
In the case of `CC(=O)N[C@@H](CS)C(=O)OCCOCCOCCOCCOCCOCCOCCOCCOC(=O)OC(C)OC(=O)[C@H](Cc1cccc(S(C)(=O)=O)c1)NC(=O)c1c(Cl)cc2c(c1Cl)CCN(C(=O)c1ccc3ccoc3c1)C2` (some centres unmarked) [Compound 30], the “Esterase % Lifitegrast formation at 45 min” value [1] is reported as “A (percent active pharmaceutical ingredient (API) formation <25%)”, the “API Formation rate (%/min)” value [1] is reported as “a (API formation rate <0.5%/min)” and the “Esterase % Lifitegrast formation at 45 min” value [2] is reported as “A (percent active pharmaceutical ingredient (API) formation <25%)”. The “API Formation rate (%/min)” value [2] was “a (API formation rate <0.5%/min)”.
In the case of `CC(OC(=O)CCC(=O)OC(C)(C)C)OC(=O)[C@H](Cc1cccc(S(C)(=O)=O)c1)NC(=O)c1c(Cl)cc2c(c1Cl)CCN(C(=O)c1ccc3ccoc3c1)C2` (some centres unmarked) [Compound 48], the “Esterase % Lifitegrast formation at 45 min” value [1] is reported as “B (percent API formation 25% to 50%)”, the “API Formation rate (%/min)” value [1] is reported as “b (API formation rate 0.5-1.0%/min)” and the “Esterase % Lifitegrast formation at 45 min” value [2] is reported as “C (percent API formation 51% to 75%)”. The “API Formation rate (%/min)” value [2] was “c (API formation rate 1.0-1.5%/min)”.
